Source: ChEMBL document CHEMBL1122825, “Peptide sweeteners. 8. Synthesis and structure-taste relationship studies of L-aspartyl-D-alanyl tripeptides” (J Med Chem, 1985)
Where a SMILES comes first, the peptide text is derived from it. [ ]: non-standard residue; d: D form. Ac6c = NC1(C(=O)O)CCCCC1; Ac5c = NC1(C(=O)O)CCCC1; Ac4c = NC1(C(=O)O)CCC1; Deg = CCC(N)(CC)C(=O)O; Ac3c = NC1(C(=O)O)CC1; Aib = CC(C)(N)C(=O)O

Key:
[1] = Compound is evaluated for sweet potency; +=Sweet
[2] = Compound is evaluated for sweet potency; -=Bitter

Sweetness potency [1]	Sweetness potency [2]	SMILES
Sweet	–	COC(=O)C(C)(C)NC(=O)[C@H](C)NC(=O)[C@@H](N)CC(=O)O (H-Asp-Ala-[Aib]-OMe)
Sweet	–	COC(=O)C1(NC(=O)[C@H](C)NC(=O)[C@@H](N)CC(=O)O)CCC1 (H-Asp-Ala-[Ac4c]-OMe)
–	Bitter	COC(=O)C1(NC(=O)[C@H](C)NC(=O)[C@@H](N)CC(=O)O)CCCCCC1
Sweet	–	COC(=O)C1(NC(=O)[C@H](C)NC(=O)[C@@H](N)CC(=O)O)CC1 (H-Asp-Ala-[Ac3c]-OMe)
–	Bitter	COC(=O)C1(NC(=O)[C@H](C)NC(=O)[C@@H](N)CC(=O)O)CCCCCCC1
Sweet	–	COC(=O)C1(NC(=O)[C@H](C)NC(=O)[C@@H](N)CC(=O)O)CCCC1 (H-Asp-Ala-[Ac5c]-OMe)
Sweet	–	CCC(CC)(NC(=O)[C@H](C)NC(=O)[C@@H](N)CC(=O)O)C(=O)OC (H-Asp-Ala-[Deg]-OMe)
Sweet	–	COC(=O)C1(NC(=O)[C@H](C)NC(=O)[C@@H](N)CC(=O)O)CCCCC1 (H-Asp-Ala-[Ac6c]-OMe)
